Experimental findings from paper PMC5218480 (PLoS ONE, 2017) are described below.

This assay concerns MV-4-11 cells. Briefly: Gene expression microarray analysis (Affymetrix PrimeView) and GSEA. It counts as cell-based, human. Also noted: RFU PODN (11730768_x_at) / Fold change /veh PODN (11730768_x_at) / RFU LINC00158 (11744669_a_at) / Fold change /veh LINC00158 (11744669_a_at) / RFU DUSP10 (11751237_a_at) / Fold change /veh DUSP10 (11751237_a_at) / RFU ID3 (11757404_x_at) / Fold change /veh ID3 (11757404_x_at) / RFU PLEKHG5 (11737974_s_at) / Fold change /veh PLEKHG5 (11737974_s_at) / RFU LRRC4B (11730491_at) / Fold change /veh LRRC4B (11730491_at) / RFU GIMAP4 (11747438_a_at) / Fold change /veh GIMAP4 (11747438_a_at) / RFU KRT8 (11758183_x_at) / Fold change /veh KRT8 (11758183_x_at) / RFU CNN1 (11734310_a_at) / Fold change /veh CNN1 (11734310_a_at) / RFU VPS37D (11726825_at) / Fold change /veh VPS37D (11726825_at) / RFU C10orf10 (11716522_x_at) / Fold change /veh C10orf10 (11716522_x_at) / RFU KIR2DL2 /// KIR2DL4 /// KIR2DL5A /// KIR2DL5B /// KIR2DS1 /// KIR2DS2 /// KIR2DS3 /// KIR2DS4 /// KIR3DL3 /// KIR3DL3 /// KIR3DS1 (11738374_at) / Fold change /veh KIR2DL2 /// KIR2DL4 /// KIR2DL5A /// KIR2DL5B /// KIR2DS1 /// KIR2DS2 /// KIR2DS3 /// KIR2DS4 /// KIR3DL3 /// KIR3DL3 /// KIR3DS1 (11738374_at) / RFU C1QL1 (11718748_at) / Fold change /veh C1QL1 (11718748_at) / RFU TMPRSS4 (11747572_a_at) / Fold change /veh TMPRSS4 (11747572_a_at) / RFU HAMP (11756126_x_at) / Fold change /veh HAMP (11756126_x_at) / RFU RNFT2 (11725882_a_at) / Fold change /veh RNFT2 (11725882_a_at) / RFU NR4A2 (11747474_a_at) / Fold change /veh NR4A2 (11747474_a_at) / RFU ABCC12 (11746883_a_at) / Fold change /veh ABCC12 (11746883_a_at) / RFU TMEM136 (11760407_x_at) / Fold change /veh TMEM136 (11760407_x_at) / RFU CLDN22 /// WWC2 (11732394_at) / Fold change /veh CLDN22 /// WWC2 (11732394_at) / RFU HLA-DPB1 (11760878_x_at) / Fold change /veh HLA-DPB1 (11760878_x_at) / RFU SPINT1 (11716480_a_at) / Fold change /veh SPINT1 (11716480_a_at) / RFU GAP43 (11754022_s_at) / Fold change /veh GAP43 (11754022_s_at) / RFU A4GNT (11735810_at) / Fold change /veh A4GNT (11735810_at) / RFU PRB3 (11715151_x_at) / Fold change /veh PRB3 (11715151_x_at) / RFU TUBB4B (11761932_at) / Fold change /veh TUBB4B (11761932_at) / RFU CAPN14 (11732068_a_at) / Fold change /veh CAPN14 (11732068_a_at) / RFU TMCC2 (11721928_a_at) / Fold change /veh TMCC2 (11721928_a_at) / RFU IRGQ (11745062_a_at) / Fold change /veh IRGQ (11745062_a_at) / RFU FAM174B (11720279_a_at) / Fold change /veh FAM174B (11720279_a_at) / RFU TMPRSS4 (11748680_a_at) / Fold change /veh TMPRSS4 (11748680_a_at) / RFU FAM212B (11763350_a_at) / Fold change /veh FAM212B (11763350_a_at) / RFU PLEKHG5 (11743358_a_at) / Fold change /veh PLEKHG5 (11743358_a_at) / RFU ZSCAN30 (11745921_a_at) / Fold change /veh ZSCAN30 (11745921_a_at) / RFU CMKLR1 (11741424_a_at) / Fold change /veh CMKLR1 (11741424_a_at) / RFU LOC101060620 /// MAPK8IP1 (11723275_at) / Fold change /veh LOC101060620 /// MAPK8IP1 (11723275_at) / RFU SPTSSB (11747773_x_at) / Fold change /veh SPTSSB (11747773_x_at) / RFU PRSS12 (11739890_at) / Fold change /veh PRSS12 (11739890_at) / RFU BIN1 (11741810_x_at) / Fold change /veh BIN1 (11741810_x_at) / RFU WNT11 (11732464_a_at) / Fold change /veh WNT11 (11732464_a_at) / RFU C10orf10 (11716521_a_at) / Fold change /veh C10orf10 (11716521_a_at) / RFU C5orf56 (11738089_at) / Fold change /veh C5orf56 (11738089_at) / RFU CYB561 (11721691_x_at) / Fold change /veh CYB561 (11721691_x_at) / RFU ANKRD19P (11752326_a_at) / Fold change /veh ANKRD19P (11752326_a_at) / RFU OR2T12 /// OR2T33 /// OR2T8 (11738714_s_at) / Fold change /veh OR2T12 /// OR2T33 /// OR2T8 (11738714_s_at) / RFU VCAN (11748164_a_at) / Fold change /veh VCAN (11748164_a_at) / RFU JSRP1 (11732532_at) / Fold change /veh JSRP1 (11732532_at) / RFU KRTAP10-11 (11738290_x_at) / Fold change /veh KRTAP10-11 (11738290_x_at) / RFU MYO3A (11730013_a_at) / Fold change /veh MYO3A (11730013_a_at) / RFU EBF3 (11725865_a_at) / Fold change /veh EBF3 (11725865_a_at) / RFU CAMK2N1 (11719241_x_at) / Fold change /veh CAMK2N1 (11719241_x_at) / RFU C5orf56 (11738088_a_at) / Fold change /veh C5orf56 (11738088_a_at) / RFU OLFML3 (11715873_a_at) / Fold change /veh OLFML3 (11715873_a_at) / RFU LOC100653217 /// NTM (11731650_a_at) / Fold change /veh LOC100653217 /// NTM (11731650_a_at) / RFU MAPK11 (11762145_a_at) / Fold change /veh MAPK11 (11762145_a_at) / RFU FIZ1 (11724087_x_at) / Fold change /veh FIZ1 (11724087_x_at) / RFU OASL (11726364_x_at) / Fold change /veh OASL (11726364_x_at) / RFU SOX15 (11748057_x_at) / Fold change /veh SOX15 (11748057_x_at) / RFU CD79A (11719716_a_at) / Fold change /veh CD79A (11719716_a_at) / RFU HIST1H1D (11736915_at) / Fold change /veh HIST1H1D (11736915_at) / RFU CASKIN2 (11723855_a_at) / Fold change /veh CASKIN2 (11723855_a_at) / RFU LOC730098 (11760151_x_at) / Fold change /veh LOC730098 (11760151_x_at) / RFU OR4N2 (11742367_at) / Fold change /veh OR4N2 (11742367_at) / RFU PRRT2 (11749266_a_at) / Fold change /veh PRRT2 (11749266_a_at) / RFU SNX32 (11753110_a_at) / Fold change /veh SNX32 (11753110_a_at) / RFU CDHR5 (11726645_a_at) / Fold change /veh CDHR5 (11726645_a_at) / RFU RCAN1 (11760418_a_at) / Fold change /veh RCAN1 (11760418_a_at) / RFU FAM167A (11723789_a_at) / Fold change /veh FAM167A (11723789_a_at) / RFU FAM26E (11764081_at) / Fold change /veh FAM26E (11764081_at) / RFU ISYNA1 (11749810_s_at) / Fold change /veh ISYNA1 (11749810_s_at) / RFU ACY1 (11761880_at) / Fold change /veh ACY1 (11761880_at) / RFU 11764098_at / Fold change /veh 11764098_at / RFU SAMD14 (11745864_x_at) / Fold change /veh SAMD14 (11745864_x_at) / RFU NPB (11741838_a_at) / Fold change /veh NPB (11741838_a_at) / RFU TMPRSS6 (11731388_a_at) / Fold change /veh TMPRSS6 (11731388_a_at) / RFU KRTAP10-2 (11738614_at) / Fold change /veh KRTAP10-2 (11738614_at) / RFU ARHGAP8 /// PRR5-ARHGAP8 (11727945_x_at) / Fold change /veh ARHGAP8 /// PRR5-ARHGAP8 (11727945_x_at) / RFU KRTAP5-7 /// NADSYN1 (11734609_at) / Fold change /veh KRTAP5-7 /// NADSYN1 (11734609_at) / RFU RASL12 (11751679_a_at) / Fold change /veh RASL12 (11751679_a_at) / RFU CDKN2B (11736163_a_at) / Fold change /veh CDKN2B (11736163_a_at) / RFU PRF1 (11729649_at) / Fold change /veh PRF1 (11729649_at) / RFU, ZNF638 /// ZNF638-IT1 / Fold change vs veh, ZNF638 /// ZNF638-IT1 / RFU, PANK3 / Fold change vs veh, PANK3 / RFU, SH3YL1 / Fold change vs veh, SH3YL1 / RFU, ZEB2 / Fold change vs veh, ZEB2 / RFU, NRIP1 / Fold change vs veh, NRIP1 / RFU, PTTG1IP / Fold change vs veh, PTTG1IP / RFU, CAPN2 / Fold change vs veh, CAPN2 / RFU, MED14 / Fold change vs veh, MED14 / RFU, SNORA58 / Fold change vs veh, SNORA58 / RFU, C1orf63 / Fold change vs veh, C1orf63 / RFU, LRRFIP1 / Fold change vs veh, LRRFIP1 / RFU, NDUFAF7 / Fold change vs veh, NDUFAF7 / RFU, SLC12A2 / Fold change vs veh, SLC12A2 / RFU, IBTK / Fold change vs veh, IBTK / RFU, ESF1 / Fold change vs veh, ESF1 / Fold change vs veh, TMEM50B / RFU, TAOK1 / Fold change vs veh, TAOK1 / RFU, ACBD3 / Fold change vs veh, ACBD3 / RFU, TMA16 / Fold change vs veh, TMA16 / RFU, RWDD3 / Fold change vs veh, RWDD3 / RFU, BCAT1 / Fold change vs veh, BCAT1 / RFU, EDEM3 / Fold change vs veh, EDEM3 / RFU, TMEM33 / Fold change vs veh, TMEM33 / RFU, WDR75 / Fold change vs veh, WDR75 / RFU, AHCTF1 / Fold change vs veh, AHCTF1 / RFU, TFRC / Fold change vs veh, TFRC / RFU, ZDHHC17 / Fold change vs veh, ZDHHC17 / RFU, NOM1 / Fold change vs veh, NOM1 / RFU, ARL8B / Fold change vs veh, ARL8B / RFU, ZBTB11 / Fold change vs veh, ZBTB11 / RFU, TAMM41 / Fold change vs veh, TAMM41 / RFU, KIAA1704 /// LOC100996395 / Fold change vs veh, KIAA1704 /// LOC100996395 / RFU, ING1 / Fold change vs veh, ING1 / RFU, TRMT61B / Fold change vs veh, TRMT61B / RFU, FUBP3 / Fold change vs veh, FUBP3 / RFU, TP53 / Fold change vs veh, TP53 / RFU, TNKS2 / Fold change vs veh, TNKS2 / RFU, ZFP14 / Fold change vs veh, ZFP14 / RFU, ACTR2 / Fold change vs veh, ACTR2 / RFU, PPP3R1 / Fold change vs veh, PPP3R1 / RFU, PIK3R1 / Fold change vs veh, PIK3R1 / RFU, HNRNPA1 / Fold change vs veh, HNRNPA1 / RFU, RNF170 / Fold change vs veh, RNF170 / RFU, ZNF28 / Fold change vs veh, ZNF28 / RFU, RNGTT / Fold change vs veh, RNGTT / RFU, OGT / Fold change vs veh, OGT / RFU, BRD1 / Fold change vs veh, BRD1 / RFU, MARS / Fold change vs veh, MARS / RFU, ZNF655 / Fold change vs veh, ZNF655 / RFU, FAHD1 / Fold change vs veh, FAHD1 / RFU, BDP1 / Fold change vs veh, BDP1 / RFU, LRRCC1 / Fold change vs veh, LRRCC1 / RFU, ARID1A / Fold change vs veh, ARID1A / RFU, ZNF146 / Fold change vs veh, ZNF146 / RFU, ZNF330 / Fold change vs veh, ZNF330 / RFU, GPN3 / Fold change vs veh, GPN3 / RFU, C9orf123 / Fold change vs veh, C9orf123 / RFU, N4BP2L2 / Fold change vs veh, N4BP2L2 / RFU, ARFIP1 / Fold change vs veh, ARFIP1 / RFU, FAM179B / Fold change vs veh, FAM179B / RFU, BCL10 / Fold change vs veh, BCL10 / RFU, UHRF1BP1L / Fold change vs veh, UHRF1BP1L / RFU, BET1 / Fold change vs veh, BET1 / RFU, CNOT2 / Fold change vs veh, CNOT2 / RFU, ZNF268 / Fold change vs veh, ZNF268 / Fold change vs veh, ZNF507 / RFU, DGCR2 / Fold change vs veh, DGCR2 / RFU, WDSUB1 / Fold change vs veh, WDSUB1 / Fold change vs veh, HSP90B1 /// MIR3652 / RFU, ADSS / Fold change vs veh, ADSS / RFU, GK / Fold change vs veh, GK / RFU, ZNF148 / Fold change vs veh, ZNF148 / RFU, TAF9 / Fold change vs veh, TAF9 / RFU, SLC1A5 / Fold change vs veh, SLC1A5 / RFU, SLMO2 / Fold change vs veh, SLMO2 / RFU, ABCC4 / Fold change vs veh, ABCC4 / RFU, LOC101060439 /// RAP1B / Fold change vs veh, LOC101060439 /// RAP1B / RFU, RFX7 / Fold change vs veh, RFX7 / RFU, GTPBP10 / Fold change vs veh, GTPBP10 / RFU, CNEP1R1 / Fold change vs veh, CNEP1R1 / RFU, BIVM-ERCC5 /// ERCC5 / Fold change vs veh, BIVM-ERCC5 /// ERCC5 / RFU, ILF3 / Fold change vs veh, ILF3 / RFU 11762660_at / Fold change /veh 11762660_at / RFU VCAN (11757783_s_at) / Fold change /veh VCAN (11757783_s_at) / RFU DDX43 (11728927_at) / Fold change /veh DDX43 (11728927_at) / RFU KRT8 (11758188_x_at) / Fold change /veh KRT8 (11758188_x_at) / RFU NKD1 (11759106_at) / Fold change /veh NKD1 (11759106_at) / RFU SRD5A1 (11742802_a_at) / Fold change /veh SRD5A1 (11742802_a_at) / RFU TPSAB1 /// TPSB2 (11721975_s_at) / Fold change /veh TPSAB1 /// TPSB2 (11721975_s_at) / RFU GSTM3 (11746129_a_at) / Fold change /veh GSTM3 (11746129_a_at) / RFU IL23R (11737362_x_at) / Fold change /veh IL23R (11737362_x_at) / RFU TMEM51 (11727254_a_at) / Fold change /veh TMEM51 (11727254_a_at) / RFU PIWIL2 (11732686_x_at) / Fold change /veh PIWIL2 (11732686_x_at) / RFU ORM1 (11744905_x_at) / Fold change /veh ORM1 (11744905_x_at) / RFU CCDC152 (11743942_at) / Fold change /veh CCDC152 (11743942_at) / RFU ECM1 (11717891_a_at) / Fold change /veh ECM1 (11717891_a_at) / RFU IL23R (11748794_a_at) / Fold change /veh IL23R (11748794_a_at) / RFU TNFAIP8L3 (11732012_x_at) / Fold change /veh TNFAIP8L3 (11732012_x_at) / RFU MBOAT4 (11741988_at) / Fold change /veh MBOAT4 (11741988_at) / RFU 11764193_at / Fold change /veh 11764193_at / RFU TMEM53 (11763286_at) / Fold change /veh TMEM53 (11763286_at) / RFU MAGEB2 (11727129_at) / Fold change /veh MAGEB2 (11727129_at) / RFU TMEM200A (11744735_a_at) / Fold change /veh TMEM200A (11744735_a_at) / RFU CCDC152 (11751479_a_at) / Fold change /veh CCDC152 (11751479_a_at) / RFU FAM211A (11726209_a_at) / Fold change /veh FAM211A (11726209_a_at) / RFU RGS16 (11746705_a_at) / Fold change /veh RGS16 (11746705_a_at) / RFU VCAN (11755009_s_at) / Fold change /veh VCAN (11755009_s_at) / RFU RHOB (11743442_s_at) / Fold change /veh RHOB (11743442_s_at) / RFU RGS16 (11720943_a_at) / Fold change /veh RGS16 (11720943_a_at) / RFU RGS16 (11720944_at) / Fold change /veh RGS16 (11720944_at) / RFU, VPS4B / Fold change vs veh, VPS4B / RFU, CREB1 / Fold change vs veh, CREB1 / RFU, DNAJC13 / Fold change vs veh, DNAJC13 / RFU, GNAQ / Fold change vs veh, GNAQ / RFU, CDK5R1 / Fold change vs veh, CDK5R1 / RFU, ZRANB3 / Fold change vs veh, ZRANB3 / RFU, CUL4A / Fold change vs veh, CUL4A / RFU, CCNY / Fold change vs veh, CCNY / RFU, UFL1 / Fold change vs veh, UFL1 / RFU, COG3 / Fold change vs veh, COG3 / RFU, DIAPH2 / Fold change vs veh, DIAPH2 / RFU, SKA2 / Fold change vs veh, SKA2 / RFU, AFF3 / Fold change vs veh, AFF3 / RFU, LMF1 / Fold change vs veh, LMF1 / RFU, IPO11 / Fold change vs veh, IPO11 / RFU, DFFB / Fold change vs veh, DFFB / RFU, FOXP1 / Fold change vs veh, FOXP1 / RFU, CARD8 / Fold change vs veh, CARD8 / RFU, STRN3 / Fold change vs veh, STRN3 / RFU, ADK / Fold change vs veh, ADK / RFU, RASSF2 / Fold change vs veh, RASSF2 / RFU, WIPF1 / Fold change vs veh, WIPF1 / RFU, LARP1B / Fold change vs veh, LARP1B / RFU, RASA1 / Fold change vs veh, RASA1 / RFU, RB1 / Fold change vs veh, RB1 / RFU, PPFIA1 / Fold change vs veh, PPFIA1 / RFU, MAT2A / Fold change vs veh, MAT2A / RFU, CCT5 / Fold change vs veh, CCT5 / RFU, WDR92 / Fold change vs veh, WDR92 / RFU, CUX1 / Fold change vs veh, CUX1 / RFU, TTC7A / Fold change vs veh, TTC7A / RFU, TMEM135 / Fold change vs veh, TMEM135 / RFU, DEPTOR / Fold change vs veh, DEPTOR / RFU, CPM / Fold change vs veh, CPM / RFU, DNAJB6 / Fold change vs veh, DNAJB6 / RFU, CACNA2D3 / Fold change vs veh, CACNA2D3 / RFU, DTX4 / Fold change vs veh, DTX4 / RFU, TFCP2 / Fold change vs veh, TFCP2 / RFU, GMCL1 /// GMCL1P1 / Fold change vs veh, GMCL1 /// GMCL1P1 / RFU, AEBP2 / Fold change vs veh, AEBP2 / RFU, SNHG1 /// SNORD22 /// SNORD25 /// SNORD26 /// SNORD27 /// SNORD28 /// SNORD29 /// SNORD31 / Fold change vs veh, SNHG1 /// SNORD22 /// SNORD25 /// SNORD26 /// SNORD27 /// SNORD28 /// SNORD29 /// SNORD31 / Fold change (Aza/veh), C12orf56 (ProbeSet 11735607_a_at) / Fold change (ACY-1035/veh), C12orf56 (ProbeSet 11735607_a_at) / Fold change (Aza/veh), FGFR1OP (ProbeSet 11751329_s_at) / Fold change (ACY-1035/veh), FGFR1OP (ProbeSet 11751329_s_at) / Fold change (Aza/veh), VPS36 (ProbeSet 11739960_a_at) / Fold change (ACY-1035/veh), VPS36 (ProbeSet 11739960_a_at) / RFU SYPL1 (11715823_x_at) / Fold change /veh SYPL1 (11715823_x_at) / RFU IGFBP7 (11715501_s_at) / Fold change /veh IGFBP7 (11715501_s_at) / RFU REEP3 (11722064_at) / Fold change /veh REEP3 (11722064_at) / RFU IGLL1 (11728026_x_at) / Fold change /veh IGLL1 (11728026_x_at): dose or concentration left out as unconfirmed. The settings on record: ProbeSet 11745428_a_at; LIST D.

In the case of `Nc1ccc(-c2cccs2)cc1NC(=O)c1ccc2c(c1)cc(C1CC1)n2CCN1CCOCC1` [ACY-1035], the “Fold change vs veh, DFFB” value is reported as 0.87.
